The record followed here is the OPERA property sets (Mansouri et al. 2018).

What is called logP is the decadic logarithm of the partition coefficient of the neutral form, usually between octanol and water. A higher logP goes with higher lipophilicity.

`CC(C)(C)c1ccc(-c2nc3ncccc3[nH]2)cc1` came in with a logP of 4.82. In turn, `Clc1ccc2[nH]c(Cc3ccc(Br)cc3)nc2c1` had a logP of 5.38.

In turn, `COc1ccccc1-c1nc2ccccc2[nH]1` yielded a logP of 3.02.

`Clc1ccc(-c2nc3ncccc3[nH]2)cc1` gave a logP of 2.95. In the case of `Fc1ccc(-c2nc3ncccc3[nH]2)cc1` it was 2.52; in that of `Cc1ccc(-c2nc3ccccc3[nH]2)cc1`, 3.67; in that of `Clc1ccc(Cc2nc3cc(Cl)ccc3[nH]2)cc1`, 5.18. `CCc1ccc(-c2nc3ncccc3[nH]2)cc1` had a logP of 3.42. In the case of `Cc1ccc(-c2nc3ncccc3[nH]2)cc1` it was 3.02. As to `COc1ccc(-c2nc3cc(C)ccc3[nH]2)c(OC)c1`, the lipophilicity (logP) came to 3.78. Under `Cc1ccc(-c2nc3cc([N+](=O)[O-])ccc3[nH]2)c(C)c1` stands 4.1; under `COc1ccc(Cc2nc3cc([N+](=O)[O-])ccc3[nH]2)cc1`, 3.48; under `Cc1ccc(Cc2nc3cc(Cl)ccc3[nH]2)cc1`, 5.21. Turning to `Cc1ccccc1-c1nc2cc([N+](=O)[O-])ccc2[nH]1`, the logP turned out to be 3.42. In the case of `Nc1ccc(Cc2nc3cc(Cl)ccc3[nH]2)cc1` it was 3.2.
